Among the data in patent publication US20260152504A1, “PYRIMIDINE SGC STIMULATORS” (Tisento Therapeutics Inc., priority 2022, published 2026) are EC50 values, retold here.

Structures are written as SMILES.

The experiment has as its target T1, sGC (Rattus norvegicus, UniProt P20595).
T1 construct: Rat primary neurons were isolated from timed-pregnant female Sprague-Dawley (SD) rats; endogenous in cells; host or cells: rat primary neurons (Sprague-Dawley)
T1 sequence (P20595 1-619): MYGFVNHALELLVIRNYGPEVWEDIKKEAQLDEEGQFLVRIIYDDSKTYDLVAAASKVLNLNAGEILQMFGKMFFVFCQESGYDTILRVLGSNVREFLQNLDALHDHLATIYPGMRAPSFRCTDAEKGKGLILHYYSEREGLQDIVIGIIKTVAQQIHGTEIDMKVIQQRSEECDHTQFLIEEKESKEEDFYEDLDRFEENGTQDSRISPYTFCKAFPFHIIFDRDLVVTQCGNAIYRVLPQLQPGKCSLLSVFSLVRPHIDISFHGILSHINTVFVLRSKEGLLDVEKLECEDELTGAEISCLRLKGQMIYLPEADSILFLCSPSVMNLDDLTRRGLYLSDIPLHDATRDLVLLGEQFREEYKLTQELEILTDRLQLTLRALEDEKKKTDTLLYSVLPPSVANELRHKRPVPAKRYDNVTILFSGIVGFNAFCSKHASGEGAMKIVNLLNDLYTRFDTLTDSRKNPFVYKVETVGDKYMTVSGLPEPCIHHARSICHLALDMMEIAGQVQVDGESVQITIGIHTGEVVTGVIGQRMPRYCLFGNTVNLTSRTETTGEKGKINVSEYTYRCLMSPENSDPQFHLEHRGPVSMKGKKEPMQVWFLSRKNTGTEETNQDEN
T1 sequence (P19686 1-690 partner): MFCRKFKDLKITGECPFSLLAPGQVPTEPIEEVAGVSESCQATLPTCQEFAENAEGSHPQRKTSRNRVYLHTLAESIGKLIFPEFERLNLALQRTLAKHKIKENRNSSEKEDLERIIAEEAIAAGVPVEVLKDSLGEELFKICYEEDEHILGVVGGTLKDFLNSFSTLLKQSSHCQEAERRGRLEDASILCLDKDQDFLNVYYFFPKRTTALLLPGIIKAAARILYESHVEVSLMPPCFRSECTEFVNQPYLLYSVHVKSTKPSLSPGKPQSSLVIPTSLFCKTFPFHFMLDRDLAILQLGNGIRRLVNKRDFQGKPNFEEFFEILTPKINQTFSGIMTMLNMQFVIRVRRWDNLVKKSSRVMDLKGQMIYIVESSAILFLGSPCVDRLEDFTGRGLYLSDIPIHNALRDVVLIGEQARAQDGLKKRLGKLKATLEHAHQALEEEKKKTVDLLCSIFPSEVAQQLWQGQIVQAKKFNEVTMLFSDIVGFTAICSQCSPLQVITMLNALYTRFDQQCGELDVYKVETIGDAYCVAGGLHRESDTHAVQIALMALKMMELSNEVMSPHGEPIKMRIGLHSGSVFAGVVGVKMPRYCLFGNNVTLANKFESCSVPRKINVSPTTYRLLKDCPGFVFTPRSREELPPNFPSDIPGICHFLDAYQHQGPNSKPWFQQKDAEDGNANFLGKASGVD
The experiment can be described thus: cGMP measurement in rat primary neurons (neuronal-based cell assay). To be noted: rat primary neurons (Sprague-Dawley); 0.5 mM IBMX; test compound with fixed DETA (Diethylenetriamine NONOate); 20 min at 37° C.; cGMP by CatchPoint kit; read-out: sGC Neuron EC50. On the procedure:
Example 2: cGMP Measurement in Rat Primary Neurons
Rat primary neurons were isolated from timed-pregnant female Sprague-Dawley (SD) rats, washed once with HBSS with calcium and magnesium and incubated with a solution containing 0.5 mM 3-isobutyl-1-methylxanthine (IBMX) in HBSS (80 μL/well) at 37° C. for 15 min. Next, a 5× stock […] of test compound with a fixed concentration of DETA (Diethylenetriamine NONOate) was added to the wells to make x nM concentration for test compound solutions and a 30 µM concentration for DETA solution, where x was 1 of the following final concentrations: 0.029, 0.114, 0.460, 1.83, 7.32, 29.29, 117.2, 468.8, 1875, 7500 and 30,000 nM. Then, the cells were incubated for 20 min at 37° C. At the end of incubation, 100 μL lysis buffer (Molecular Devices) was added to cells. CatchPoint™ Cyclic-GMP Fluorescent Assay Kit was used with Molecular Devices' ID3 multi-mode plate reading. Sample cGMP concentrations were extrapolated from standard curve using Softmax Pro 7 Software. A well-characterized, potent sGC stimulator was included in all assay runs and used as a positive control.
Test compound (“agonist”) concentrations vs extrapolated cGMP concentrations (“response”) were plotted and analyzed using GraphPad Prism version 9.4.1. Curve fit was used for each dataset; non-linear log(agonist) vs. response-variable slope (four parameters). The EC50 is interpolated from the curve fit and is defined as the concentration at which the compound elicits 50% of its maximal response. When the experiment is carried out more than two times, the geometric mean is reported, otherwise the arithmetic mean is shown. To increase the accuracy of the EC50 calculations, top and bottom parameters were constrained when consistent with the observed data in a given assay run. For instance, in assay runs where the cGMP response values in the absence of test article were consistent across plates, an average across all of these wells was used as a lower constraint in the calculations. In assay runs where the maximal cGMP responses were consistent with that of the positive control, a top constraint equal to the maximal cGMP response of the positive control was applied. If there was significant variability in cGMP response in no compound wells or variation in maximal responses across plates, no constraints were imposed.
For `N#Cc1cn2cc(-c3ncc(F)c(O)n3)nc(Cc3cc(F)c(F)cc3F)c2n1` [Compound I-3, 6-(5-fluoro-4-hydroxypyrimidin-2-yl)-8-(2,4,5-trifluorobenzyl)imidazo[1,2-a]pyrazine-2-carbonitrile], the EC50 is at most 0.1 µM. With `Cc1cc(C#N)c(F)cc1Cc1nc(-c2ncc(F)c(O)n2)cn2c(F)cnc12` [Compound I-4, 2-fluoro-4-((3-fluoro-6-(5-fluoro-4-hydroxypyrimidin-2-yl)imidazo[1,2-a]pyrazin-8-yl)methyl)-5-methylbenzonitrile], the EC50 is above 5 µM.

For the molecule `Cc1cc(F)c(Cc2nc(-c3nc(O)c(F)c(CF)n3)cn3ncnc23)cc1F` [Compound I-5, 2-(8-(2,5-difluoro-4-methylbenzyl)-[1,2,4]triazolo[1,5-a]pyrazin-6-yl)-5-fluoro-6-(fluoromethyl)pyrimidin-4-ol], the EC50 was 1 to 5 µM. With `Cc1cnc2c(Cc3cc(F)c(Cl)cc3F)nc(-c3nc(O)c(F)c(O)n3)cn12` [Compound I-6, 2-(8-(4-chloro-2,5-difluorobenzyl)-3-methylimidazo[1,2-a]pyrazin-6-yl)-5-fluoropyrimidine-4,6-diol], the EC50 was above 5 µM. As to `COc1cnc2c(Cc3cc(F)c(C)cc3F)nc(-c3ncc(C)c(O)n3)cn12` [Compound I-7, 2-(8-(2,5-difluoro-4-methylbenzyl)-3-methoxyimidazo[1,2-a]pyrazin-6-yl)-5-methylpyrimidin-4-ol], the EC50 was above 5 µM.

Consider `CC(=O)c1cnc2c(Cc3cc(F)ccc3F)nc(-c3nc(C)c(F)c(O)n3)cn12` [Compound I-8, 1-(8-(2,5-difluorobenzyl)-6-(5-fluoro-4-hydroxy-6-methylpyrimidin-2-yl)imidazo[1,2-a]pyrazin-3-yl)ethan-1-one], for which the EC50 was above 5 µM. The figure for `CC(=O)c1ccc(Cc2nc(-c3ncc(F)c(O)n3)cn3c(Cl)cnc23)c(F)c1` [Compound I-9, 1-(4-((3-chloro-6-(5-fluoro-4-hydroxypyrimidin-2-yl)imidazo[1,2-a]pyrazin-8-yl)methyl)-3-fluorophenyl)ethan-1-one] is above 5 µM; for `CSc1cnc2c(Cc3cc(F)c(C)cc3F)nc(-c3nc(O)c(C)c(Br)n3)cn12` [Compound I-12, 6-bromo-2-(8-(2,5-difluoro-4-methylbenzyl)-3-(methylthio)imidazo[1,2-a]pyrazin-6-yl)-5-methylpyrimidin-4-ol] it is above 5 µM; for `Cc1cc(F)c(Cc2nc(-c3ncc(C#N)c(O)n3)cn3c(F)cnc23)cc1F` [Compound I-17, 2-(8-(2,5-difluoro-4-methylbenzyl)-3-fluoroimidazo[1,2-a]pyrazin-6-yl)-4-hydroxypyrimidine-5-carbonitrile] it is at most 0.1 µM. The result for `COc1c(O)nc(-c2cn3ccnc3c(Cc3cc(F)c(C)cc3F)n2)nc1CF` [Compound I-21, 2-(8-(2,5-difluoro-4-methylbenzyl)imidazo[1,2-a]pyrazin-6-yl)-6-(fluoromethyl)-5-methoxypyrimidin-4-ol] reads 0.1 to 1 µM. The figure for `COCc1nc(-c2cn3ccnc3c(Cc3cc(F)c(C)cc3F)n2)nc(O)c1F` [Compound I-22, 2-(8-(2,5-difluoro-4-methylbenzyl)imidazo[1,2-a]pyrazin-6-yl)-5-fluoro-6-(methoxymethyl)pyrimidin-4-ol] is 0.1 to 1 µM; for `CC(=O)c1cnc(-c2cn3ccnc3c(Cc3cc(F)c(C)cc3F)n2)nc1O` [Compound I-24, 1-(2-(8-(2,5-difluoro-4-methylbenzyl)imidazo[1,2-a]pyrazin-6-yl)-4-hydroxypyrimidin-5-yl)ethan-1-one] it is 0.1 to 1 µM. Consider `Cc1cc(F)c(Cc2nc(-c3ncc(CO)c(O)n3)cn3ccnc23)cc1F` [Compound I-25, 2-(8-(2,5-difluoro-4-methylbenzyl)imidazo[1,2-a]pyrazin-6-yl)-5-(hydroxymethyl)pyrimidin-4-ol], for which the EC50 was 0.1 to 1 µM.

Take `Cc1cc(F)c(Cc2nc(-c3nc(O)cc(CCO)n3)cn3ccnc23)cc1F` [Compound I-26, 2-(8-(2,5-difluoro-4-methylbenzyl)imidazo[1,2-a]pyrazin-6-yl)-6-(2-hydroxyethyl)pyrimidin-4-ol]: the EC50 is above 5 µM. The result for `COCc1nc(-c2cn3ccnc3c(Cc3cc(F)c(C)cc3F)n2)nc(O)c1OC` [Compound I-27, 2-(8-(2,5-difluoro-4-methylbenzyl)imidazo[1,2-a]pyrazin-6-yl)-5-methoxy-6-(methoxymethyl)pyrimidin-4-ol] reads above 5 µM. Turning to `Cc1cc(F)c(Cc2nc(-c3ncc(C(C)O)c(O)n3)cn3ccnc23)cc1F` (stereo not shown) [Compound I-28, 2-(8-(2,5-difluoro-4-methylbenzyl)imidazo[1,2-a]pyrazin-6-yl)-5-(1-hydroxyethyl)pyrimidin-4-ol], the EC50 was 0.1 to 1 µM. The result for `COc1cnc2c(Cc3cc(F)c(C)cc3F)nc(-c3ncc(Cl)c(O)n3)cn12` [Compound I-29, 5-chloro-2-{8-[(2,5-difluoro-4-methylphenyl)methyl]-3-methoxyimidazo[1,2-a]pyrazin-6-yl}pyrimidin-4-ol] reads 0.1 to 1 µM. The figure for `CCc1cc(O)nc(-c2cn3ccnc3c(Cc3cc(F)c(C)cc3F)n2)n1` [Compound I-30, 2-{8-[(2,5-difluoro-4-methylphenyl)methyl]imidazo[1,2-a]pyrazin-6-yl}-6-ethylpyrimidin-4-ol] is 1 to 5 µM; for `Cc1nc(-c2cn3c(C(C)O)cnc3c(Cc3cc(F)ccc3F)n2)nc(O)c1F` (stereo not shown) [Compound I-31, 2-(8-(2,5-difluorobenzyl)-3-(1-hydroxyethyl)imidazo[1,2-a]pyrazin-6-yl)-5-fluoro-6-methylpyrimidin-4-ol] it is above 5 µM. Turning to `COc1cnc2c(Cc3cc(F)c(C#N)cc3C)nc(-c3ncc(F)c(O)n3)cn12` [Compound I-32, 2-fluoro-4-((6-(5-fluoro-4-hydroxypyrimidin-2-yl)-3-methoxyimidazo[1,2-a]pyrazin-8-yl)methyl)-5-methylbenzonitrile], the EC50 was above 5 µM.

`Cc1cc(F)c(Cc2nc(-c3ncc(F)c(O)n3)cn3c(CO)cnc23)cc1F` [Compound I-35, 2-(8-(2,5-difluoro-4-methylbenzyl)-3-(hydroxymethyl)imidazo[1,2-a]pyrazin-6-yl)-5-fluoropyrimidin-4-ol]: the EC50 was 1 to 5 µM. Turning to `CCOCc1nc(-c2cn3ncnc3c(Cc3cc(F)c(C)cc3F)n2)nc(O)c1F` [Compound I-44, 2-(8-(2,5-difluoro-4-methylbenzyl)-[1,2,4]triazolo[1,5-a]pyrazin-6-yl)-6-(ethoxymethyl)-5-fluoropyrimidin-4-ol], the EC50 was above 5 µM.
